# Measured values: patent publication US9326503B2, “Biocide compositions comprising branched alkyl polyglycosides” (Cognis IP Management GmbH, priority 2009, dated 2016)
# What was measured:
# Asian Soybean Rust = experiment: Field trial in Brazil: soybean crop yield under Asian Soybean Rust, fungicide with or without adjuvant; format: in vivo; details: where added, 150 ml/ha
# Method: Field trials were conducted in Brazil. Two standard biocide compositions from the market were applied to soybean crops: OPERA® (BASF) contains 5% w/w epoxiconazole and 13.3% w/w pyraclostrobin, the former is a preventive and curative fungicide, the latter a protectant, curative, and translaminar fungicide. FOLICUR® (Bayer CropScience) contains tebuconazole, a fungicide with protective, curative, and eradicant properties. The two compositions were applied at full recommended rate and at a 50% level. These experiments are compared to similar treatment of the plants adding in both cases adjuvant mixtures at a concentration of 150 ml/ha.
# [1] = test system: barnyard grass and green foxtail; experiment: Uptake of radio-labelled nicosulfuron with adjuvant, compared with crop oil concentrate; format: in vivo; details: adjuvant rate giving the same nicosulfuron uptake as COC (uptake with COC set to 100%); nicosulfuron (ACCENT WDG 75) 0.031% w/v
# Method: A separate study was undertaken to compare the performance of the invented composition compared with an industry standard, more particularly a crop oil concentrate (COC), on the uptake of nicosulfuron on barnyard grass and green foxtail. Nicosulfuron as ACCENT® WDG 75 was used at 0.031% w/v (46.7 g active ingredient/150 l/ha). Radio-labelled nicosulfuron (50 mCi/mmol) was added to freshly prepared treatment solution 0.5 h prior to use. The ^14C nicosulfuron comprised 7% by mass. Spray solutions with nicosulfuron alone i.e. without adjuvant, were formulated in 50% acetone. All additives were used at the same concentration. The uptake using COC (Example C3) was set to 100%, therefore the data in Table 2, below, reflects the reduction in concentration of the other adjuvants in order to achieve the same level of uptake for COC. In other words, one can reduce the amount of adjuvant by 75-80% in order to achieve the same effects compared to the use of COC.
# [2] = FOLICUR (tebuconazole) at full recommended rate
# [3] = FOLICUR at 50% of the full recommended rate
# [4] = OPERA (5% epoxiconazole, 13.3% pyraclostrobin) at full recommended rate
# [5] = OPERA at 50% of the full recommended rate
Substance,"Soybean Crop Yield influenced by Asian Soybean Rust - relative to control (=100), FOLICUR (Asian Soybean Rust; [2])","Soybean Crop Yield influenced by Asian Soybean Rust - relative to control (=100), FOLICUR (Asian Soybean Rust; [3])","Soybean Crop Yield influenced by Asian Soybean Rust - relative to control (=100), OPERA (Asian Soybean Rust; [4])","Soybean Crop Yield influenced by Asian Soybean Rust - relative to control (=100), OPERA (Asian Soybean Rust; [5])",Adjuvant rate [1] [% v/v]
Isostearyl polyglucoside (DP 1.5) [Example 2],135,156,153,137,0.22
2-Octyldodecyl polyglucoside (DP 1.7) [Example 1],141,161,161,137,0.24
"Cetearyl polyglucoside (DP 1.5) [C1, reference compound]",127,149,150,129,0.19
